Data on two compounds can be found in patent publication US20240352000A1, “NOVEL PYRIMIDINE-2,4-DIAMINE DERIVATIVES, PREPARATION METHOD THEREFOR, AND PHARMACEUTICAL COMPOSITION CONTAINING SAME AS ACTIVE INGREDIENT FOR PREVENTION OR TREATMENT OF CANCER” (KOREA RESEARCH INSTITUTE OF CHEMICAL TECHNOLOGY, priority 2021, published 2024).

Experiment [1] has as its target EGFR del19/T790M (Homo sapiens (Human), UniProt P00533, DEL746-750/T790M). The experiment can be described thus: HTRF enzyme assay, EGFR del19/T790M mutant enzyme. It counts as biochemical. The following applies: recombinant enzyme, 37° C. 2 hours. As for the experimental part:
An experiment to measure the activity of the compounds of the present invention against EGFR mutant enzymes was performed as follows using the HTRF system sold by Cisbio. For the EGFR del19/T790M mutant enzyme, a recombinant protein provided by Carna Biosciences was purchased and used, and for the EGFR del19/T790M/C797S mutant enzyme, a protein provided by SignalChem was purchased and used as an enzyme source.
The composition of the assay buffer used for measuring the activity was 50 mM Tris-HCl pH 7.5, 100 mM NaCl, 7.5 mM MgCl2, 3 mM KCl, 0.01% Tween 20, 0.1% BSA, and 1 mM DTT. Here, an enzyme reaction was performed using ATP at a concentration of […] and a peptide substrate labeled with biotin at a concentration of […]. Analysis of the inhibitory effect of the compounds against the EGFR activity was conducted according to the following analysis reaction recipe. • Component 1: 4 μL of an EGFR mutant enzyme • Component 2: 2 μL of a compound solution • Component 3: 4 μL of ATP and a peptide labeled with biotin
The enzyme reaction was started by first mixing Component 1 and Component 2 and then adding Component 3. After reaction at 37° C. for 2 hours, […] of measurement solution consisting of streptavidin-XL665 and europium-labeled anti-phosphotyrosine antibody provided by Cisbio was added to the enzyme reaction solution and reacted at room temperature for 1 hour. Finally, the ratio of fluorescence values at 615 nm and 665 nm was obtained using the Envision equipment from Perkin-Elmer to quantitatively measure the enzyme activity and confirmed the inhibitory ability of the compounds. The measurement values measured at seven compound concentrations were analyzed using the Prism program (version 5.01, Graphpad Software, Inc.), and the IC50 value, which is an indicator of the inhibitory ability of the compound, was calculated.

In experiment [2] the test system is Ba/F3 EGFR del19/T790M/C797S. Put plainly: CellTiter-Glo cell viability, Ba/F3 EGFR del19/T790M/C797S. Format: cell-based. The conditions noted are these: 72 hours. The method, then: (§1) An experiment to measure the activity of the compounds of the present invention against the mutant Ba/F3 EGFR cell line was performed as follows using the CellTiter-Glo system sold by Promega. The CellTiter-Glo assay is a method to confirm the cell viability by measuring ATP present in cells in cell culture. For the Ba/F3 EGFR del19, Ba/F3 EGFR del19/T790M, Ba/F3 del19/T790M/C797S mutant cell line, a cell line provided by Crown Bioscience was purchased and used. The Ba/F3 EGFR del19, Ba/F3 EGFR del19/T790M, Ba/F3 del19/T790M/C797S mutant cell line was cultured in RPMI containing 10% FBS and 1% penicillin-streptomycin with 1 μg of puromycin in an incubator at 37° C. and 5% CO2.
(§2) Analysis of the inhibitory ability effect of the compounds against EGFR was conducted according to the following analysis reaction recipe.
(§3) 2500 cells/90 μL were passaged and cultured in a 96-well cell culture plate, and after 24 hours, treated with the compound represented by Formula 1 at a concentration of 0, 0.01, 0.03, 0.1, 0.3, 1, 3, and 10 (μM). After reaction for 72 hours, the plate treated with the compound was left at room temperature for 30 minutes, then further treated with 100 μl of reagent, and shaken at room temperature for 10 minutes. Finally, the ratio of fluorescence values at 570 nm was obtained using the equipment to quantitatively measure and confirmed the inhibitory ability of the compounds. The measurement values measured at eight compound concentrations were analyzed using the Prism program (version 5.01, Graphpad Software, Inc.), and the IC50 value, which is an indicator of the inhibitory ability of the compound, was calculated.

Experiment [3] relates to Ba/F3 EGFR L858R. The experiment can be described thus: CellTiter-Glo cell viability, Ba/F3 EGFR L858R. It counts as cell-based. The following applies: 72 hours. As for the experimental part: An experiment to measure the activity of the compounds of the present invention against the mutant Ba/F3 EGFR cell line was performed as follows using the CellTiter-Glo system sold by Promega. The CellTiter-Glo assay is a method to confirm the cell viability by measuring ATP present in cells in cell culture. The Ba/F3 EGFR L858R, Ba/F3 EGFR L858R/T790M, Ba/F3 EGFR L858R/T790M/C797S mutant cell line was used. The Ba/F3 EGFR L858R, Ba/F3 EGFR L858R/T790M, and Ba/F3 EGFR L858R/T790M/C797S mutant cell lines was cultured in RPMI containing 10% FBS and 1% penicillin-streptomycin with 1 μg of puromycin in an incubator at 37° C. and 5% CO2.
as §2
as §3, with “μl” for “μL”

For experiment [4], the system named is Ba/F3 EGFR V769_D770insASV. The experiment can be described thus: CellTiter-Glo cell growth, Ba/F3 EGFR Ex20 insertion mutant. Format: cell-based. The conditions noted are these: 72 hours. As for the experimental part:
as §1, with “the” for “the mutant”, “EGFR V769_D770insASV mutant” for “EGFR”, “EGFR V769_D770insASV” for “EGFR del19, Ba/F3 EGFR del19/T790M, Ba/F3 del19/T790M/C797S”, “1 μg/ml” for “1 μg”
Analysis of the inhibitory ability effect of the compounds against the EGFR mutant cell growth was conducted according to the following analysis reaction recipe.
as §3, with “1000 cells/100 μL were” for “2500 cells/90 μL were”, “[…]. After reaction” for “and 10 (μM). After reaction”, “with 100 μL of reagent,” for “with 100 μl of reagent,”, “confirmed the cell growth inhibitory ability” for “confirmed the inhibitory ability”, “of the cell growth inhibitory ability” for “of the inhibitory ability”

Sequence of EGFR del19/T790M (P00533 other isoform, or with tags, fused parts or gaps T790M/del 1-668/del 746-750 limits assumed): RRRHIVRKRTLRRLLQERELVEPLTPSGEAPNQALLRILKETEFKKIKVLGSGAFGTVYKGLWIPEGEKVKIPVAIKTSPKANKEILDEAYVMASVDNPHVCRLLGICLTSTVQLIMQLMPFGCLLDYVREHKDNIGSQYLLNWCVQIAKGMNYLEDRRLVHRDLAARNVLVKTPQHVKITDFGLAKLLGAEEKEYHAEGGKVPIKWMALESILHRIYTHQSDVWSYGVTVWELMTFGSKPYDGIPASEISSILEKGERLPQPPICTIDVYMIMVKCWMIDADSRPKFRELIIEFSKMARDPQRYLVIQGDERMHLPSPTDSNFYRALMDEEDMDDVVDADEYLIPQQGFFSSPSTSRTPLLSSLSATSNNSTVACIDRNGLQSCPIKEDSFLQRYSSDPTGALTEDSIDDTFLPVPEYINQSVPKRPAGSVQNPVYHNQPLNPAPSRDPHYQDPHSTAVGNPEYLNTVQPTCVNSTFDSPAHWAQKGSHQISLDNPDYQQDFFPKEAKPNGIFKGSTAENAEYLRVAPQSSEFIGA

Take `COc1cc(N2CCC(N3CCN(C)CC3)CC2)ccc1Nc1ncc(Cl)c(Nc2cccc3c2N(S(C)(=O)=O)CC3)n1` [Example 2, 5-chloro-N2-(2-methoxy-4-(4-(4-methylpiperazin-1-yl)piperidin-1-yl)phenyl)-N4-(1-(methylsulfonyl)indolin-7-yl)pyrimidine-2,4-diamine]: the IC50 in experiment [1] is less than 1 nM; in experiment [2] it was less than 100 nM; in experiment [3] it was less than 30 nM; in experiment [4] it was 210 nM.
Taken in the same sequence, the figures for `COc1cc(N2CCC(N3CCN(C)CC3)CC2)ccc1Nc1ncc(Cl)c(Nc2cccc3c2N(S(C)(=O)=O)CCC3)n1` [Example 5, 5-chloro-N2-(2-methoxy-4-(4-(4-methylpiperazin-1-yl)piperidin-1-yl)phenyl)-N4-(1-(methylsulfonyl)-1,2,3,4-tetrahydroquinolin-8-yl)pyrimidine-2,4-diamine] were less than 1 nM, less than 30 nM, less than 30 nM and 360 nM.
